This is an account of results in publication PMC8233901, “D-Amino Acid-Containing Lipopeptides Derived from the Lead Peptide BP100 with Activity against Plant Pathogens” (International Journal of Molecular Sciences, 2021).

Values joined by “and” are separate entries in the source; they are usually repeats but may differ in a detail not shown here. Equal values may be shown once. Where a SMILES comes first, the peptide text is derived from it. [ ]: non-standard residue; d: D form. The star is where a group is joined. Lauroyl = CCCCCCCCCCCC(=O)*; Butyryl = CCCC(=O)*

One data set deals with horse erythrocytes. The data set can be described thus: Hemolytic activity (hemoglobin release from erythrocytes). Format: cell-based. To be noted: D-amino acid lipopeptides, TRIS buffer pH 7.2, 1 h, 37 °C, ± confidence interval (α = 0.05); for Hemolysis (%) 250 µM / Hemolysis (%) 150 µM / Hemolysis (%) 375 µM: relative to melittin; for Hemolysis (%) 50 µM: absorbance 540 nm, relative to melittin 100 µM. How it is done:
The hemolytic activity of the compounds was evaluated by determining hemoglobin release from erythrocyte suspensions of horse blood (5% vol/vol) (Oxoid) as previously described. Blood was centrifuged at 6000 g for 5 min, washed three times with tris(hydroxymethyl)aminomethane (TRIS) buffer (10 mM TRIS, 150 mM NaCl, pH 7.2) and diluted 10 times. Compounds were solubilized in TRIS buffer at 750, 500, 300 and 100 μM and mixed with horse erythrocytes (1:1 v/v). The mixture was incubated under continuous shaking for 1 h at 37 °C. Then, the tubes were centrifuged at 3500 g for 10 min, 80 μL aliquots of the supernatant transferred to 100-well microplates (Bioscreen), diluted with 80 μL water, and the absorbance measured at 540 nm (Bioscreen). Complete hemolysis was obtained by the addition of melittin at 100 μM (Sigma-Aldrich Corporation, Madrid, Spain). The percentage of hemolysis (H) was calculated using the equation: H = 100 × [(Op−Ob)/(Om−Ob)], where Op is the density for a given compound concentration, Ob for the buffer, and Om for the melittin-positive control.

The next data set has as its system tobacco leaves. The data set can be described thus: Effect of peptide infiltration on tobacco leaves (lesion size). Particulars: for Size of the lesion (mm) 50 µM: 100 µL infiltrated into mesophyll of tobacco leaves; for Size of the lesion (mm) 50 µM / Size of the lesion (mm) 150 µM / Size of the lesion (mm) 250 µM: ± confidence interval. Format: in vivo. How it is done: The lipopeptides were evaluated for their effect upon infiltration on tobacco leaves as described previously. Peptide solutions of 50, 150 and 250 μM were infiltrated (100 μL) into the mesophylls of fully expanded tobacco leaves. Infiltrations were carried out in a single leaf, and for each peptide and dose, at least three leaves randomly distributed in different plants were infiltrated. Control infiltrations with water (negative control) or melittin (positive control) at the same molar concentration were performed. The appearance of symptoms on the leaves was followed for 48 h after infiltration and measured as a lesion diameter.

Where [1] appears, read: D-amino acid lipopeptides, lesion diameter, 48 h, at least three leaves.
Where [2] appears, read: D-amino acid lipopeptides, 100 µL infiltrated into tobacco leaves, lesion diameter, 48 h, at least three leaves.
[3] abbreviates: D-amino acid lipopeptides, 250 µM, 100 µL infiltrated into tobacco leaves, lesion diameter, 48 h, at least three leaves.
[4] abbreviates: Table 2, 250 µM infiltrated into tobacco leaves.

Take `CCCCCC(=O)N[C@@H](CCCCN)C(=O)N[C@@H](CCCCN)C(=O)N[C@@H](CC(C)C)C(=O)N[C@H](Cc1ccccc1)C(=O)N[C@@H](CCCCN)C(=O)N[C@@H](CCCCN)C(=O)N[C@H](C(=O)N[C@@H](CC(C)C)C(=O)N[C@@H](CCCCN)C(=O)N[C@@H](Cc1ccc(O)cc1)C(=O)N[C@@H](CC(C)C)C(N)=O)[C@@H](C)CC` [BP472, C5H11CO-KKLfKKILKYL-NH2]: the “Hemolysis (%) 250 µM” value with horse erythrocytes is 78 ± 5%. Further, the “Size of the lesion (mm) 50 µM” value in the data set on tobacco leaves (setting [1]) amounted to 2 ± 1 mm. Moreover, the “Size of the lesion (mm) 150 µM” value with tobacco leaves (setting [2]) was 4 ± 1 mm. For the same molecule, the “Size of the lesion (mm) 250 µM” value in the data set on tobacco leaves (setting [3]) and in the data set on tobacco leaves (setting [4]) was 4 ± 1 mm throughout.
For the molecule `CCCC(=O)NCCCC[C@H](NC(=O)[C@H](CCCCN)NC(=O)[C@@H](Cc1ccccc1)NC(=O)[C@H](CC(C)C)NC(=O)[C@H](CCCCN)NC(=O)[C@H](CCCCN)NC(C)=O)C(=O)N[C@H](C(=O)N[C@@H](CC(C)C)C(=O)N[C@@H](CCCCN)C(=O)N[C@@H](Cc1ccc(O)cc1)C(=O)N[C@@H](CC(C)C)C(N)=O)[C@@H](C)CC` [BP473, Ac-KKLfKK(COC3H7)ILKYL-NH2], the “Hemolysis (%) 250 µM” value with horse erythrocytes was 84 ± 11%. The “Size of the lesion (mm) 50 µM” value in the data set on tobacco leaves (setting [1]) was 2 ± 2 mm. The “Size of the lesion (mm) 150 µM” value in the data set on tobacco leaves (setting [2]) came out at 4 ± 0.9 mm. The “Size of the lesion (mm) 250 µM” value with tobacco leaves (setting [3]) and in the data set with tobacco leaves (setting [4]) was 5 ± 2 mm each time.
As for `CCCC(=O)NCCCC[C@H](NC(=O)[C@@H](NC(=O)[C@H](CCCCN)NC(=O)[C@H](CCCCN)NC(=O)[C@@H](Cc1ccccc1)NC(=O)[C@H](CC(C)C)NC(=O)[C@H](CCCCN)NC(=O)[C@H](CCCCN)NC(C)=O)[C@@H](C)CC)C(=O)N[C@@H](CCCCN)C(=O)N[C@@H](Cc1ccc(O)cc1)C(=O)N[C@@H](CC(C)C)C(N)=O` [BP474, Ac-KKLfKKIK(COC3H7)KYL-NH2] (Ac-KKL[dF]KKIK(Butyryl)KYL-NH2), in the data set on horse erythrocytes, the “Hemolysis (%) 50 µM” value was 0 ± 0%, the “Hemolysis (%) 150 µM” value is given as 0 ± 0%, the “Hemolysis (%) 250 µM” value was 0 ± 0% and the “Hemolysis (%) 375 µM” value was found to be 0 ± 0%. Also, the “Size of the lesion (mm) 50 µM” value in the data set with tobacco leaves (setting [1]) turned out to be 0 ± 0 mm. Besides, in the data set with tobacco leaves (setting [2]), the “Size of the lesion (mm) 150 µM” value is reported as 2 ± 2 mm. In addition, the “Size of the lesion (mm) 250 µM” value in the data set on tobacco leaves (setting [3]) is reported as 4 ± 2 mm. In addition, in the data set with tobacco leaves (setting [4]), the “Size of the lesion (mm) 250 µM” value was determined as 4 ± 2 mm.
Take `CCCC(=O)NCCCC[C@H](NC(=O)[C@H](CCCCN)NC(=O)[C@H](CC(C)C)NC(=O)[C@@H](NC(=O)[C@H](CCCCN)NC(=O)[C@H](CCCCN)NC(=O)[C@@H](Cc1ccccc1)NC(=O)[C@H](CC(C)C)NC(=O)[C@H](CCCCN)NC(=O)[C@H](CCCCN)NC(C)=O)[C@@H](C)CC)C(=O)N[C@@H](CC(C)C)C(N)=O` [BP475, Ac-KKLfKKILKK(COC3H7)L-NH2] (Ac-KKL[dF]KKILKK(Butyryl)L-NH2): in the data set with horse erythrocytes, the “Hemolysis (%) 50 µM” value amounted to 0 ± 0%; the “Hemolysis (%) 150 µM” value stood at 0 ± 0%; the “Hemolysis (%) 250 µM” value was 0 ± 0% and 0%; the “Hemolysis (%) 375 µM” value is 0 ± 0%. Besides, the “Size of the lesion (mm) 50 µM” value with tobacco leaves (setting [1]) stood at 5 ± 1 mm. Also, the “Size of the lesion (mm) 150 µM” value in the data set on tobacco leaves (setting [2]) stood at 7 ± 2 mm. Moreover, the “Size of the lesion (mm) 250 µM” value with tobacco leaves (setting [3]) worked out at 10 ± 1 mm. Besides, the “Size of the lesion (mm) 250 µM” value in the data set with tobacco leaves (setting [4]) came out at 10 ± 1 mm.
With `CCCCCCCCCCCC(=O)NCCCC[C@H](NC(=O)[C@H](Cc1ccc(O)cc1)NC(=O)[C@H](CCCCN)NC(=O)[C@H](CC(C)C)NC(=O)[C@@H](NC(=O)[C@H](CCCCN)NC(=O)[C@H](CCCCN)NC(=O)[C@@H](Cc1ccccc1)NC(=O)[C@H](CC(C)C)NC(=O)[C@H](CCCCN)NC(=O)[C@H](CCCCN)NC(C)=O)[C@@H](C)CC)C(N)=O` [BP476, Ac-KKLfKKILKYK(COC11H23)-NH2] (Ac-KKL[dF]KKILKYK(Lauroyl)-NH2), the “Hemolysis (%) 250 µM” value in the data set with horse erythrocytes stood at 94 ± 10%. In the data set with horse erythrocytes, the “Hemolysis (%) 375 µM” value was found to be 94 ± 67%. In the data set with tobacco leaves (setting [1]), the “Size of the lesion (mm) 50 µM” value is 3 ± 0.6 mm. Further, the “Size of the lesion (mm) 150 µM” value in the data set on tobacco leaves (setting [2]) worked out at 3 ± 0.5 mm. Further, the “Size of the lesion (mm) 250 µM” value in the data set on tobacco leaves (setting [3]) and in the data set with tobacco leaves (setting [4]) was 5 ± 0.5 mm each time.
melittin [reference compound]: the “necrosis in infiltrated tobacco leaves” value with tobacco leaves (positive control, 250 µM) turned out to be 18 mm.
